The molecules below were run on Beet Armyworm (Spodoptera exigua) (assay: Bioassay on Beet Armyworm (BAW), 128-well diet tray assay). Conditions: Table 3, Assays Results Part 1.
Format: in vivo
Procedure: Certain molecules disclosed in this document were tested against BAW, CEW and CL using procedures described in the following examples. In the reporting of the results, the “BAW & CEW & CL Rating Table” was used (See Table Section).
Bioassays on BAW (Spodoptera exigua)
Bioassays on BAW were conducted using a 128-well diet tray assay. One to five second instar BAW larvae were placed in each well (3 mL) of the diet tray that had been previously filled with 1 mL of artificial diet to which 50 μg/cm^2 of the test compound (dissolved in 50 μL of 90:10 acetone-water mixture) had been applied (to each of eight wells) and then allowed to dry. Trays were covered with a clear self-adhesive cover, and held at 25° C., 14:10 light-dark for five to seven days. Percent mortality was recorded for the larvae in each well; activity in the eight wells was then averaged. The results are indicated in the tables entitled “Table 3: Assay Results Part 1” and “Table 4: Assay Results Part 2” (See Table Section).

How did the “BAW Rating” value turn out when `Cc1cc(/C=C/C(c2cc(Cl)cc(Cl)c2)C(F)(F)F)ccc1C(=O)NCc1ccc(Cl)nc1` (stereo not shown) [AC7] was run?
The value was “A (50-100)”.

For `Cc1cc(/C=C/C(c2cc(Cl)cc(Cl)c2)C(F)(F)F)ccc1C(=O)NCc1ccccc1F` (stereo not shown) [AC9], which “BAW Rating” value is on record?
Its value is “A (50-100)”.

Which “BAW Rating” value does the source give for `Cc1cc(/C=C/C(c2cc(Cl)cc(Cl)c2)C(F)(F)F)ccc1C(=O)NC1CSC1` (stereo not shown) [AC10] here?
Its value is “A (50-100)”.

For `Cc1cc(/C=C/C(c2cc(Cl)cc(Cl)c2)C(F)(F)F)ccc1C(=O)NCc1ccccc1` (stereo not shown) [AC11], which “BAW Rating” value is on record?
The value was “A (50-100)”.

How did the “BAW Rating” value turn out when `Cc1cc(/C=C/C(c2cc(Cl)cc(Cl)c2)C(F)(F)F)ccc1C(=O)NCc1ccccn1` (stereo not shown) [AC12] was run?
The value was “A (50-100)”.

With `Cc1cc(/C=C/C(c2cc(Cl)cc(Cl)c2)C(F)(F)F)ccc1C(=O)NC1CS(=O)(=O)C1` (stereo not shown) [AC13] as the molecule, how does the “BAW Rating” value read?
Its value is “A (50-100)”.

With `Cc1cc(/C=C/C(c2cc(Cl)cc(Cl)c2)C(F)(F)F)ccc1C(=O)NCc1cnc(Cl)s1` (stereo not shown) [AC15] as the molecule, how does the “BAW Rating” value read?
The value was “A (50-100)”.

With `Cc1cc(/C=C/C(c2cc(Cl)cc(Cl)c2)C(F)(F)F)ccc1C(=O)NC(C)(C)c1ccccn1` (stereo not shown) [AC16] as the molecule, how does the “BAW Rating” value read?
Its value is “A (50-100)”.

With `Cc1cc(/C=C/C(c2cc(Cl)cc(Cl)c2)C(F)(F)F)ccc1C(=O)NNc1ccccc1F` (stereo not shown) [AC17] as the molecule, how does the “BAW Rating” value read?
Its value is “A (50-100)”.

With `Cc1cc(/C=C/C(c2cc(Cl)cc(Cl)c2)C(F)(F)F)ccc1C(=O)NCc1ncccn1` (stereo not shown) [AC18] as the molecule, how does the “BAW Rating” value read?
The value was “A (50-100)”.

Which “BAW Rating” value does the source give for `Cc1cc(/C=C/C(c2cc(Cl)cc(Cl)c2)C(F)(F)F)ccc1C(=O)NCc1ccoc1` (stereo not shown) [AC20] here?
The value was “A (50-100)”.

For `Cc1cc(/C=C/C(c2cc(Cl)c(Cl)c(Cl)c2)C(F)(F)F)ccc1C(=O)NCc1ccc(Cl)nc1` (stereo not shown) [AC22], which “BAW Rating” value is on record?
The value was “A (50-100)”.

`Cc1cc(/C=C/C(c2cc(Cl)c(Cl)c(Cl)c2)C(F)(F)F)ccc1C(=O)NC1CSC1` (stereo not shown) [AC23] was tested. Which “BAW Rating” value did it give?
The value was “A (50-100)”.

Which “BAW Rating” value does the source give for `Cc1cc(/C=C/C(c2cc(Cl)c(Cl)c(Cl)c2)C(F)(F)F)ccc1C(=O)NCc1cnc(Cl)s1` (stereo not shown) [AC26] here?
The value was “A (50-100)”.

`Cc1cc(/C=C/C(c2cc(Cl)c(Cl)c(Cl)c2)C(F)(F)F)ccc1C(=O)NC(C)(C)c1ccccn1` (stereo not shown) [AC27] was tested. Which “BAW Rating” value did it give?
The value was “A (50-100)”.

`O=C(NCc1ccc(Cl)nc1)c1ccc(/C=C/C(c2cc(Cl)c(Cl)c(Cl)c2)C(F)(F)F)cc1Cl` (stereo not shown) [AC28] was tested. Which “BAW Rating” value did it give?
The value was “A (50-100)”.

`O=C(NC1CSC1)c1ccc(/C=C/C(c2cc(Cl)c(Cl)c(Cl)c2)C(F)(F)F)cc1Cl` (stereo not shown) [AC29] was tested. Which “BAW Rating” value did it give?
Its value is “A (50-100)”.

`O=C(NC1CS(=O)(=O)C1)c1ccc(/C=C/C(c2cc(Cl)c(Cl)c(Cl)c2)C(F)(F)F)cc1Cl` (stereo not shown) [AC30] was tested. Which “BAW Rating” value did it give?
The value was “A (50-100)”.

With `O=C(NCc1ccc(Cl)nc1)c1ccc(/C=C/C(c2cc(Cl)c(Cl)c(Cl)c2)C(F)(F)F)cc1Br` (stereo not shown) [AC31] as the molecule, how does the “BAW Rating” value read?
Its value is “A (50-100)”.

For `O=C(NC1CSC1)c1ccc(/C=C/C(c2cc(Cl)c(Cl)c(Cl)c2)C(F)(F)F)cc1Br` (stereo not shown) [AC32], which “BAW Rating” value is on record?
The value was “A (50-100)”.

Which “BAW Rating” value does the source give for `O=C(NC1CS(=O)(=O)C1)c1ccc(/C=C/C(c2cc(Cl)c(Cl)c(Cl)c2)C(F)(F)F)cc1Br` (stereo not shown) [AC33] here?
Its value is “A (50-100)”.

How did the “BAW Rating” value turn out when `O=C(NC1CSC1)c1ccc(/C=C/C(c2cc(Cl)c(Cl)c(Cl)c2)C(F)(F)F)cc1C(F)(F)F` (stereo not shown) [AC34] was run?
Its value is “A (50-100)”.

How did the “BAW Rating” value turn out when `O=C(NC1CS(=O)(=O)C1)c1ccc(/C=C/C(c2cc(Cl)c(Cl)c(Cl)c2)C(F)(F)F)cc1C(F)(F)F` (stereo not shown) [AC35] was run?
The value was “A (50-100)”.

Which “BAW Rating” value does the source give for `O=C(NCc1ccc(Cl)nc1)c1ccc(/C=C/C(c2cc(Cl)c(Cl)c(Cl)c2)C(F)(F)F)cc1C(F)(F)F` (stereo not shown) [AC36] here?
Its value is “A (50-100)”.

For `Cc1cc(/C=C/C(c2ccc(Cl)c(Cl)c2)C(F)(F)F)ccc1C(=O)NCc1ccc(Cl)nc1` (stereo not shown) [AC37], which “BAW Rating” value is on record?
The value was “A (50-100)”.

With `Cc1cc(/C=C/C(c2cc(Cl)c(F)c(Cl)c2)C(F)(F)F)ccc1C(=O)NCc1ccc(Cl)nc1` (stereo not shown) [AC38] as the molecule, how does the “BAW Rating” value read?
The value was “A (50-100)”.

Which “BAW Rating” value does the source give for `Cc1cc(/C=C/C(c2cc(Cl)cc(Cl)c2)C(F)(F)F)ccc1C(=O)NCc1cncnc1` (stereo not shown) [AC39, 4-((E)-3-(3,5-Dichlorophenyl)-4,4,4-trifluorobut-1-enyl)-2-methyl-N-((pyrimidin-5-yl)methyl)benzamide] here?
Its value is “A (50-100)”.

With `Cc1cc(/C=C/C(c2cc(Cl)cc(Cl)c2)C(F)(F)F)ccc1C(=O)NCC(=O)NC1CC1` (stereo not shown) [AC40] as the molecule, how does the “BAW Rating” value read?
The value was “A (50-100)”.

How did the “BAW Rating” value turn out when `Cc1cc(/C=C/C(c2cc(Cl)cc(Cl)c2)C(F)(F)F)ccc1C(=O)NCC(=O)NC1CSC1` (stereo not shown) [AC41] was run?
Its value is “A (50-100)”.

Which “BAW Rating” value does the source give for `Cc1cc(/C=C/C(c2cc(Cl)cc(Cl)c2)C(F)(F)F)ccc1C(=O)NCc1nc2ccccc2s1` (stereo not shown) [AC42] here?
Its value is “A (50-100)”.

For `Cc1cc(/C=C/C(c2cc(Cl)cc(Cl)c2)C(F)(F)F)ccc1C(=O)NCc1cnccn1` (stereo not shown) [AC43], which “BAW Rating” value is on record?
The value was “A (50-100)”.

`Cc1cc(/C=C/C(c2cc(Cl)cc(Cl)c2)C(F)(F)F)ccc1C(=O)NN(C)c1ccccc1F` (stereo not shown) [AC45] was tested. Which “BAW Rating” value did it give?
Its value is “A (50-100)”.

`Cc1cc(/C=C/C(c2cc(Cl)cc(Cl)c2)C(F)(F)F)ccc1C(=O)NCc1ccc(Cl)cc1` (stereo not shown) [AC48] was tested. Which “BAW Rating” value did it give?
Its value is “A (50-100)”.

Which “BAW Rating” value does the source give for `O=C(NCc1ccc(Cl)nc1)c1ccc(/C=C/C(c2cc(Cl)cc(Cl)c2)C(F)(F)F)cc1F` (stereo not shown) [AC49] here?
Its value is “A (50-100)”.

How did the “BAW Rating” value turn out when `Cc1cc(/C=C/C(c2cc(Cl)cc(Cl)c2)C(F)(F)F)ccc1C(=O)NCc1nccn1C` (stereo not shown) [AC50] was run?
The value was “A (50-100)”.

For `Cc1cc(/C=C/C(c2cc(Cl)cc(Cl)c2)C(F)(F)F)ccc1C(=O)NCC(=O)N(C)CC(F)(F)F` (stereo not shown) [AC51], which “BAW Rating” value is on record?
Its value is “A (50-100)”.

Which “BAW Rating” value does the source give for `Cc1cc(/C=C/C(c2cc(Cl)c(F)c(Cl)c2)C(F)(F)F)ccc1C(=O)NC1CCOCC1` (stereo not shown) [AC52] here?
The value was “A (50-100)”.

How did the “BAW Rating” value turn out when `Cc1cc(/C=C/C(c2cc(Cl)c(F)c(Cl)c2)C(F)(F)F)ccc1C(=O)NCc1ccc(Cl)cn1` (stereo not shown) [AC53] was run?
Its value is “A (50-100)”.

With `Cc1cc(/C=C/C(c2cc(Cl)c(F)c(Cl)c2)C(F)(F)F)ccc1C(=O)NCc1ccnc(Cl)c1` (stereo not shown) [AC54] as the molecule, how does the “BAW Rating” value read?
Its value is “A (50-100)”.

For `CC(C)(C)OC(=O)CNC(=O)c1ccc(/C=C/C(c2cc(Cl)c(Cl)c(Cl)c2)C(F)(F)F)cc1Br` (stereo not shown) [AC58], which “BAW Rating” value is on record?
The value was “A (50-100)”.

Which “BAW Rating” value does the source give for `Cc1cc(/C=C/C(c2cc(Cl)cc(Cl)c2)C(F)(F)F)ccc1C(=O)Nc1ccc(Cl)nc1` (stereo not shown) [AC59] here?
The value was “A (50-100)”.

With `O=C(NC1CSC1)c1ccc(/C=C/C(c2cc(Cl)cc(Cl)c2)C(F)(F)F)cc1F` (stereo not shown) [AC61] as the molecule, how does the “BAW Rating” value read?
The value was “A (50-100)”.

Which “BAW Rating” value does the source give for `O=C(CNC(=O)c1ccc(/C=C/C(c2cc(Cl)cc(Cl)c2)C(F)(F)F)cc1F)NCC(F)(F)F` (stereo not shown) [AC62] here?
Its value is “A (50-100)”.

Which “BAW Rating” value does the source give for `O=C(NCc1ccc(Cl)nc1)c1ccc(/C=C/C(c2cc(Cl)c(F)c(Cl)c2)C(F)(F)F)cc1Br` (stereo not shown) [AC63] here?
Its value is “A (50-100)”.

With `O=C(CNC(=O)c1ccc(/C=C/C(c2cc(Cl)c(Cl)c(Cl)c2)C(F)(F)F)cc1Cl)NCC(F)(F)F` (stereo not shown) [AC64, (E)-2-Chloro-N-(2-oxo-2-((2,2,2-trifluoroethyl)amino)ethyl)-4-(4,4,4-trifluoro-3-(3,4,5-trichlorophenyl)but-1-en-1-yl)benzamide] as the molecule, how does the “BAW Rating” value read?
Its value is “A (50-100)”.

With `O=C(NCc1ccc(Cl)nc1)c1ccc(/C=C/C(c2cc(Cl)c(F)c(Cl)c2)C(F)(F)F)cc1F` (stereo not shown) [AC65] as the molecule, how does the “BAW Rating” value read?
The value was “A (50-100)”.

Reference: patent US9226500B2, “Pesticidal compositions and processes related thereto” (Dow AgroSciences LLC, priority 2012, dated 2016)
